We go through 4 molecules from PubChem BioAssay (NCI).

Test systems include NCI-H23 lung; OVCAR-8 ovarian; UO-31 renal; BT-549 breast; CAKI-1 renal; MOLT-4 leukemia; RXF 393 renal; MDA-MB-231 breast; MALME-3M melanoma; UACC-257 melanoma.
What all share (assay): NCI tumour cell line growth inhibition, 48 h

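1) Cells in 96-well plates. 2) Compound, 48 h, 5 concentrations. 3) Linear interpolation between surrounding doses. 4) Unreached endpoint = highest concentration. Here, GI50 denotes the concentration required for 50% inhibition of growth. The concentration for full growth arrest is given as TGI.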

Regarding `Cc1ccc(N(CC(=O)Nc2ccc(S(=O)(=O)N3CCC(N4CCCC4)CC3)cc2)S(=O)(=O)c2ccc(Cl)cc2)cc1`, the GI50 is 1.8 µM in the test on NCI-H23 lung; 1.86 µM in the test with OVCAR-8 ovarian; 1.6 µM with UO-31 renal; 1.68 µM with BT-549 breast; 1.65 µM in the test on CAKI-1 renal; 1.87 µM in the test with MOLT-4 leukemia. Also, in the test with RXF 393 renal, the GI50 is 1.16 µM. Further, the TGI in the test on NCI-H23 lung came to 3.87 µM; in the test with OVCAR-8 ovarian, 3.76 µM; in the test on UO-31 renal it was 3.27 µM; in the test on BT-549 breast, 3.31 µM; with CAKI-1 renal, 3.31 µM; in the test on MOLT-4 leukemia, 4.98 µM. Moreover, the TGI in the test with RXF 393 renal stood at 2.78 µM.

In the case of `O=C1Nc2ccc(Cl)cc2/C1=C\c1c(Cl)nc2sccn12`, the TGI in the test with NCI-H23 lung, in the test with OVCAR-8 ovarian, with UO-31 renal, with BT-549 breast, with MDA-MB-231 breast and in the test with MALME-3M melanoma was greater than 100 µM each time. Moreover, the TGI in the test on CAKI-1 renal was greater than 100 µM; in the test with MOLT-4 leukemia, 51.9 µM; in the test on RXF 393 renal, greater than 100 µM; in the test with UACC-257 melanoma, greater than 100 µM.

Consider `O=C(Nc1ccc(-n2ccc3c(NC(=O)c4ccccc4)ncnc32)cc1)Nc1cccc(Cl)c1Cl`, for which the GI50 in the test on NCI-H23 lung is 1.64 µM; in the test on OVCAR-8 ovarian it was 1.07 µM; in the test with UO-31 renal, 0.786 µM; in the test on MDA-MB-231 breast it was 1.02 µM; in the test with MALME-3M melanoma it was 1.04 µM; in the test with CAKI-1 renal, 3.84 µM. The GI50 in the test on MOLT-4 leukemia was 1.71 µM; with RXF 393 renal, 0.796 µM; in the test on UACC-257 melanoma it was 2.15 µM. Further, the TGI with NCI-H23 lung is 11 µM; in the test with OVCAR-8 ovarian it was 2.6 µM; in the test with UO-31 renal it was 1.56 µM; with MDA-MB-231 breast, 3.05 µM; in the test with MALME-3M melanoma, 4.13 µM; in the test with CAKI-1 renal, 24.9 µM. The TGI in the test on MOLT-4 leukemia is greater than 50 µM; in the test on RXF 393 renal, 1.79 µM; with UACC-257 melanoma, 7.7 µM.

Take `CC(=O)NC1=C[C@@H]([C@H]2COC(C)(C)O2)OC1=O`: the TGI in the test with NCI-H23 lung, in the test with OVCAR-8 ovarian, in the test with UO-31 renal, with MALME-3M melanoma, in the test with CAKI-1 renal and in the test on MOLT-4 leukemia was greater than 100 µM in each case. The TGI in the test on RXF 393 renal and in the test with UACC-257 melanoma was greater than 100 µM in each case.
